Calls of active or inactive are those of the source.
Experiments:
Cytochrome P450 2C9 = Cytochrome P450 2C9 (Homo sapiens, UniProt P11712); conditions: Potency
Cytochrome P450 2C19 = Cytochrome P450 2C19 (Homo sapiens, UniProt P33261); assay: qHTS Assay for Inhibitors and Substrates of Cytochrome P450 2C19. [Related pubchem assays: 410 ]; type: ADME; conditions: read-out: Potency
Cytochrome P450 2D6 = Cytochrome P450 2D6 (Homo sapiens, UniProt P10635); assay: qHTS Assay for Inhibitors and Substrates of Cytochrome P450 2D6. [Related pubchem assays: 410 ]; type: ADME; conditions: read-out: Potency
Cytochrome P450 2D6, sequence (P10635 whole entry): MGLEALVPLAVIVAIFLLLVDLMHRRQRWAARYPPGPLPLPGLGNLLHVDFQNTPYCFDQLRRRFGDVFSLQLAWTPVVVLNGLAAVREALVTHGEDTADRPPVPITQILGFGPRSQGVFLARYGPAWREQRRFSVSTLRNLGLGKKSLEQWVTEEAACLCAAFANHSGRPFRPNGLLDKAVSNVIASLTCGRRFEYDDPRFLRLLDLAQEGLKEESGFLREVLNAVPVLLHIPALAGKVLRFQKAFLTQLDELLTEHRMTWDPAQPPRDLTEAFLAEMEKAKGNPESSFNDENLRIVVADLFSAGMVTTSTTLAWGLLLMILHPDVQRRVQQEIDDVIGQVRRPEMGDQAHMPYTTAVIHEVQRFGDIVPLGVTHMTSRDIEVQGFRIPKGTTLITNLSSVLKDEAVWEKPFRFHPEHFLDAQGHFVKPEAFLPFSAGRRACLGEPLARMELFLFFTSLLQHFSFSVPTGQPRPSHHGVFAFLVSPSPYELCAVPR

Cytochrome P450 3A4 = Cytochrome P450 3A4 (Homo sapiens, UniProt P08684); conditions: Potency;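 note: confirmatory qHTS run detecting inhibitors and substrates of CYP3A4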
Cytochrome P450 3A4, sequence (P08684 whole entry): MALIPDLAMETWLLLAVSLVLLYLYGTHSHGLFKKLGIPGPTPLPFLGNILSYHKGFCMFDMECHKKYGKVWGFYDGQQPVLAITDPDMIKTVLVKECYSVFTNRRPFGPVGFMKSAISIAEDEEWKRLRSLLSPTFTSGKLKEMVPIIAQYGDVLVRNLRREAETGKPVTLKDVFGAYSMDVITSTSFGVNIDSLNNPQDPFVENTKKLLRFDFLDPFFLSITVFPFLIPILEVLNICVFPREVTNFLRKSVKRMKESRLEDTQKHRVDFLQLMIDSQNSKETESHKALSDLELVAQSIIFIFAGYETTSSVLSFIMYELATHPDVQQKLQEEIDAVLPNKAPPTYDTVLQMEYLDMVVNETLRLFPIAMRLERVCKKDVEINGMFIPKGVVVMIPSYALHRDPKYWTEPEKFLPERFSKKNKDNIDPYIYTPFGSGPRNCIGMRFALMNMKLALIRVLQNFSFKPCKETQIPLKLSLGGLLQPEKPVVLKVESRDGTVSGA

[1] = M. tuberculosis growth inhibition, HTS (AID 449762); type: functional
cells [2] = type: functional
[3] = microbe, parasite or virus in culture; type: functional; conditions: Mycobacterium tuberculosis
[4] = THP-1 cell cytotoxicity, dose response, cytotoxicity control for non-replicating M. tuberculosis project (AID 489025); type: functional
[5] = target: Aryl hydrocarbon receptor (Homo sapiens, UniProt P35869); assay: Luminescence-based cell-based high throughput dose response assay for activators of the Aryl Hydrocarbon Receptor (AHR). [Related pubchem assays: 2796 (Primary screen (AHR activators in singlicate)), 2845 (Confirmation screen (AHR activators in triplicate)), 434939 (Counterscreen (PXR activators in triplicate)), 2804 (Summary (AHR activators))]; type: ADME
Aryl hydrocarbon receptor, sequence (P35869 whole entry): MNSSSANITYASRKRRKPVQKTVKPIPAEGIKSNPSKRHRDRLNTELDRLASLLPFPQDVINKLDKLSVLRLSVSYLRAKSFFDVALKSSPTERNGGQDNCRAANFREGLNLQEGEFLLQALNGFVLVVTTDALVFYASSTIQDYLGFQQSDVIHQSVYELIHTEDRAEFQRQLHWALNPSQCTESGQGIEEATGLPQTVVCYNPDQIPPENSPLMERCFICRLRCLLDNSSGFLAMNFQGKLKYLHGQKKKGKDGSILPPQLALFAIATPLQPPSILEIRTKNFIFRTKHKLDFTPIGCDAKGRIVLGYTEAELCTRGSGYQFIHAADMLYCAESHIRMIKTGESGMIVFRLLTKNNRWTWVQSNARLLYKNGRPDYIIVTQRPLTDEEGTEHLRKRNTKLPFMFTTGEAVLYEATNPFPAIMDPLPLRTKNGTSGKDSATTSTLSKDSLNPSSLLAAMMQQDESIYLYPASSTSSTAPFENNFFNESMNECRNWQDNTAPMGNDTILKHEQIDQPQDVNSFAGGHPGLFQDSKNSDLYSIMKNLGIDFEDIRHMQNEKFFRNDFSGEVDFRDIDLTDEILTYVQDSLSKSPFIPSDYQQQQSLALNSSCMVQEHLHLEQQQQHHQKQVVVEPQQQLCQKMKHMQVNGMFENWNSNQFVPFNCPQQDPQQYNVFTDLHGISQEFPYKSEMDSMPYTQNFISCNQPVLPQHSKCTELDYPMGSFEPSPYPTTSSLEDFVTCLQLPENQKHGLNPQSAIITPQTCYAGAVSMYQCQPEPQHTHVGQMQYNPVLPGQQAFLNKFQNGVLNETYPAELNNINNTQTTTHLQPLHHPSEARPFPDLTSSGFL

NADPH oxidase 1 = target: T1, NADPH oxidase 1 (Homo sapiens, UniProt Q9Y5S8); assay: Late-stage luminescence-based cell-based dose response assay to identify inhibitors of NADPH oxidase 1 (NOX1): Synthesized analogs.; type: functional
T1 sequence (Q9Y5S8 whole entry): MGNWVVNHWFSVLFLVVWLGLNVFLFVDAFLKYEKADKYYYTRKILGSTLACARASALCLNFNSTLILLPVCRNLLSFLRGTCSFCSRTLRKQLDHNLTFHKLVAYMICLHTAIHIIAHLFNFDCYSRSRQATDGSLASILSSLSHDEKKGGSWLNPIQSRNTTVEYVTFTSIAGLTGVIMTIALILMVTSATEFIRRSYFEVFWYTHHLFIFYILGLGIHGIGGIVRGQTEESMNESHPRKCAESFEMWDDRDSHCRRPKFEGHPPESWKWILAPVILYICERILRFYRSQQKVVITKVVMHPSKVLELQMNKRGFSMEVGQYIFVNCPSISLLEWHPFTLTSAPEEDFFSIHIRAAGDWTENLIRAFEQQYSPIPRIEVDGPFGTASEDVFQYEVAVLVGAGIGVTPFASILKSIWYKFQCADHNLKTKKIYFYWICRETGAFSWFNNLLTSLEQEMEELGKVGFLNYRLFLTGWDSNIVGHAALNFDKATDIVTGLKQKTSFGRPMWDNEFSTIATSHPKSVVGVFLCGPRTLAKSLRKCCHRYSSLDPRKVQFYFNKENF

[6] = target: Hepatocyte nuclear factor 4-alpha (Homo sapiens, UniProt P41235); type: functional, cell-based;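 note: biochemical luminescence-based dose-response counterscreen measuring inhibition of HNF4 dimerization, run alongside a screen for blockers of ABHD5–perilipin-5 interaction; split luciferase complementation of HNF4 fusion proteins in cell lysate measuring dimerization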
Hepatocyte nuclear factor 4-alpha, sequence (P41235 whole entry, the tested form may be a part): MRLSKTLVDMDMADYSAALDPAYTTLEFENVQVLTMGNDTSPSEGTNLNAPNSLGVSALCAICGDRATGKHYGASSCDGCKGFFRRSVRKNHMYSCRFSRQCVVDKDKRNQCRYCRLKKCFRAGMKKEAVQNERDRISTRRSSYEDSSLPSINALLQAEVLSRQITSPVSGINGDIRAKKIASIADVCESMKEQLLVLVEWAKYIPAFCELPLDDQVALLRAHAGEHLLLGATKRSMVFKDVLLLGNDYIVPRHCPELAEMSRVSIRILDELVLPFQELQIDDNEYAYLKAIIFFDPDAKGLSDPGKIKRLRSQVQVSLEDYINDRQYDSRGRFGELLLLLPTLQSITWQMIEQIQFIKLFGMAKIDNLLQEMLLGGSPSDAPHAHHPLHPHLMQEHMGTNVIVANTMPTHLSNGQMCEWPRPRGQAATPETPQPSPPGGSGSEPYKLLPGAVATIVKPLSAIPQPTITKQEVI

[7] = Shn3 3'UTR reporter inhibitors, dose response, cell-based, Clone20 osteoblasts, firefly luciferase, cherry-picked (AID 624132); type: functional;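 note: firefly luciferase luminescence from reporter carrying the Shn3 3'UTR in osteoblasts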
Galanin receptor type 3 = target: T2, Galanin receptor type 3 (Homo sapiens, UniProt O60755); assay: Fluorescence-based cell-based primary high throughput dose response assay to identify antagonists of the Galanin Receptor 3 (GalR3).; type: functional
T2 sequence (O60755 whole entry): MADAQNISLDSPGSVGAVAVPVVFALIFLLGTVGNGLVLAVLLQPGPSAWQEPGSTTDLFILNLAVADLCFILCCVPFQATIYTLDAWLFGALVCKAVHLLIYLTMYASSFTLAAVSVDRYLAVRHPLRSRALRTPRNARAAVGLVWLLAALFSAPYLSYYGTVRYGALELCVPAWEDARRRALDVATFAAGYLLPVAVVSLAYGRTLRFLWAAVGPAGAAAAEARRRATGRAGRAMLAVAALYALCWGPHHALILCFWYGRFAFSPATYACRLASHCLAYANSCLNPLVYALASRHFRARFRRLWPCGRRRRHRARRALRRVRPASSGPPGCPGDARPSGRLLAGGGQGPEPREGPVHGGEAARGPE

[8] = target: G-protein coupled receptor 55 (Homo sapiens, UniProt Q9Y2T6); assay: GPR55 agonists via beta-arrestin recruitment, primary screen, imaging, U2OS cells, beta-arrestin-GFP redistribution (AID 1961); type: functional
G-protein coupled receptor 55, sequence (Q9Y2T6 whole entry): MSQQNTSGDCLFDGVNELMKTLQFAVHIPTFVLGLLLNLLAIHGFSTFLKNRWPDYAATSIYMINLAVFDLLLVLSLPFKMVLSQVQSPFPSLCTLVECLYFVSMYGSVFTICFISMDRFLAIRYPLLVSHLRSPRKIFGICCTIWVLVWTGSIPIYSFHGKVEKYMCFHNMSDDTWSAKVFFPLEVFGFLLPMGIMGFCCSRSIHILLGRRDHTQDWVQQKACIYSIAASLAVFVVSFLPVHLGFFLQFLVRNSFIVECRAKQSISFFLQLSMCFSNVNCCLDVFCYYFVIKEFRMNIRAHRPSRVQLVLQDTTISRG

[9] = control 3'UTR Renilla luciferase suppression, dose response, counter-screen for Shn3 inhibitor project, cell-based, Clone20-Shn3RL, cherry-picked (AID 624133); type: functional
[10] = target: E3 ubiquitin-protein ligase Mdm2 (Homo sapiens, UniProt Q00987); assay: enhancers of MDM2-luciferase reporter signal, concentration-effect titration, project on inhibitors of MDM2 ubiquitin ligase, cellular assay, luminescent readout, 384-well plate format (AID 1394); type: functional;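 note: MDM2 E3 inhibitors raise luminescence so EC50 is for signal enhancement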
E3 ubiquitin-protein ligase Mdm2, sequence (Q00987 whole entry): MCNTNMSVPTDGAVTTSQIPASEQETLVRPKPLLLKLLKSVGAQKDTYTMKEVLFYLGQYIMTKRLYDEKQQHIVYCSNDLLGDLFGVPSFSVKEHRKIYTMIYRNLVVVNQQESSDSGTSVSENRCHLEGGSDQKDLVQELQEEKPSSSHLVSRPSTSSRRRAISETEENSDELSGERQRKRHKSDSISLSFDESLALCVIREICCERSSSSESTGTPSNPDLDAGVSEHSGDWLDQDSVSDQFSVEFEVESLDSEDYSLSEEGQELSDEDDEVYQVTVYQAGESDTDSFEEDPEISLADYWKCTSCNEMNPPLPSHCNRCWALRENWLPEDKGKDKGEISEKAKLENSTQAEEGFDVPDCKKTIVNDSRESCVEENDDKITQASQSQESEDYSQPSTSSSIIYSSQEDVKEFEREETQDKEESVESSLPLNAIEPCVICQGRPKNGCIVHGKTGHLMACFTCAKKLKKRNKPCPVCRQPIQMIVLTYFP

cells [11] = type: functional, cell-based; conditions: HEK-CNG
[12] = target: Solute carrier family 12 member 2/member 5 (Homo sapiens, UniProt P55011+Q9H2X9); assay: KCC2 and NKCC1 inhibition by rubidium flux, cell-based, NKCC1 counter-screen (AID 1734); type: functional, HEK293

Cytochrome P450 2C19, sequence (P33261 whole entry): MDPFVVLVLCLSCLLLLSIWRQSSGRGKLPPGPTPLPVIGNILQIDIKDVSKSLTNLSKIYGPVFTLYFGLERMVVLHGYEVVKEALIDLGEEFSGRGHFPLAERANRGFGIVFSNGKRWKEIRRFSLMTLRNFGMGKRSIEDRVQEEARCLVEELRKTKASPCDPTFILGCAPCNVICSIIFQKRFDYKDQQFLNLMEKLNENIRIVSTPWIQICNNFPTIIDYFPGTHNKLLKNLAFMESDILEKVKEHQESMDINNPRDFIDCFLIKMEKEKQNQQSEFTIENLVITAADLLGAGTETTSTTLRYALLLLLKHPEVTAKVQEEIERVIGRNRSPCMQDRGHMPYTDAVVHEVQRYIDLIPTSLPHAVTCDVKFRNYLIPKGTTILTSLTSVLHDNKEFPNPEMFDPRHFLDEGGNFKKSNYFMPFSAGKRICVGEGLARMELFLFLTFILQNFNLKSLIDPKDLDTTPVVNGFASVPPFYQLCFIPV
Cytochrome P450 2C9, sequence (P11712 whole entry): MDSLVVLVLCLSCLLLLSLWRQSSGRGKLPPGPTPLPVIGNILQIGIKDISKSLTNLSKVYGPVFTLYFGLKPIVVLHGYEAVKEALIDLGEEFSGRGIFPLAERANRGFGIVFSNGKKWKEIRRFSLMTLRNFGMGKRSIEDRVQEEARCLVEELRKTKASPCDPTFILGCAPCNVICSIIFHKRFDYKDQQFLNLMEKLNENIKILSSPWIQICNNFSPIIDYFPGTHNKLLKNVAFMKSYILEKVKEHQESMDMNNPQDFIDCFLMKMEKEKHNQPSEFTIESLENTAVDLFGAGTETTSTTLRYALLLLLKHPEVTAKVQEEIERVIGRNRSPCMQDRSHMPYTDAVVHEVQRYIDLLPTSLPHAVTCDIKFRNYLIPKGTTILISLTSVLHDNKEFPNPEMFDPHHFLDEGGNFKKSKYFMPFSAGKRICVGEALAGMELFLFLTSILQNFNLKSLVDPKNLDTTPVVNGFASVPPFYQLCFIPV

Question: For `O=c1c(O)c(-c2ccc(O)c(O)c2)oc2ccccc12`, which AC50 (Cytochrome P450 2C9) is on record?
Answer: 31.6 µM (inconclusive)

Question: What about the AC50 (Cytochrome P450 2C19) of the same compound?
Answer: 25.1 µM (inconclusive)

Question: And the AC50 (Cytochrome P450 2D6)?
Answer: 31.6 µM (inconclusive)

Question: And the AC50 (Cytochrome P450 3A4)?
Answer: 31.6 µM (inconclusive)

Question: Which IC50 [1] does the source give for `CCCCNC(=O)Nc1nnc(-c2ccc(OCC)cc2)o1` here?
Answer: > 100 µM (active)

Question: And the IC50 (cells [2])?
Answer: 26.2 µM (active)

Question: And the CC50 [3]?
Answer: > 40 µM (active)

Question: And the CC50 [4]?
Answer: > 40 µM (active)

Question: For `Cc1nccc(-c2ccc(-n3cnc4ccccc43)cc2)n1`, which EC50 [5] is on record?
Answer: > 1.13 µM (active)

Question: What does the source list for `C=CC(=O)N1c2ccccc2Sc2ccc(NC(=O)OCC)cc21`?
Answer: IC50 (NADPH oxidase 1): > 50 µM (not active); IC50 [6]: 12.2 µM (inactive)

Question: What does the source list for `COc1ccccc1-c1cc(C(F)(F)F)nc(S(=O)(=O)CCCC(=O)Nc2cccnc2Cl)n1`?
Answer: AC50 [7]: 10.6 µM (active); IC50 (Galanin receptor type 3): > 29.9 µM (inactive); EC50 [8]: 2.94 µM (active); AC50 [9]: 13.1 µM (active); EC50 [10]: 2 µM (not active); EC50 (cells [11]): > 29.9 µM (inactive)

Question: With `Cc1nc(CC(=O)Nc2nc(-c3ccccc3)cs2)cs1` as the compound, how does the IC50 [12] read?
Answer: 79 µM (active)

— ChEMBL document CHEMBL1201862, “PubChem BioAssay data set” (2004)
